The text below walks through data of ChEMBL document CHEMBL3991601, “The target landscape of clinical kinase drugs” (Science, 2017).

In test [1] the target is Calcium/calmodulin-dependent protein kinase kinase 2 (Homo sapiens, UniProt Q96RR4).
In test [2] the target is Guanine nucleotide-binding protein G(i) subunit alpha-2 (Homo sapiens, UniProt P04899).
Test [3] has as its target T1, ATP-dependent 6-phosphofructokinase, platelet type (Homo sapiens, UniProt Q01813).
T1 sequence (Q01813 whole entry): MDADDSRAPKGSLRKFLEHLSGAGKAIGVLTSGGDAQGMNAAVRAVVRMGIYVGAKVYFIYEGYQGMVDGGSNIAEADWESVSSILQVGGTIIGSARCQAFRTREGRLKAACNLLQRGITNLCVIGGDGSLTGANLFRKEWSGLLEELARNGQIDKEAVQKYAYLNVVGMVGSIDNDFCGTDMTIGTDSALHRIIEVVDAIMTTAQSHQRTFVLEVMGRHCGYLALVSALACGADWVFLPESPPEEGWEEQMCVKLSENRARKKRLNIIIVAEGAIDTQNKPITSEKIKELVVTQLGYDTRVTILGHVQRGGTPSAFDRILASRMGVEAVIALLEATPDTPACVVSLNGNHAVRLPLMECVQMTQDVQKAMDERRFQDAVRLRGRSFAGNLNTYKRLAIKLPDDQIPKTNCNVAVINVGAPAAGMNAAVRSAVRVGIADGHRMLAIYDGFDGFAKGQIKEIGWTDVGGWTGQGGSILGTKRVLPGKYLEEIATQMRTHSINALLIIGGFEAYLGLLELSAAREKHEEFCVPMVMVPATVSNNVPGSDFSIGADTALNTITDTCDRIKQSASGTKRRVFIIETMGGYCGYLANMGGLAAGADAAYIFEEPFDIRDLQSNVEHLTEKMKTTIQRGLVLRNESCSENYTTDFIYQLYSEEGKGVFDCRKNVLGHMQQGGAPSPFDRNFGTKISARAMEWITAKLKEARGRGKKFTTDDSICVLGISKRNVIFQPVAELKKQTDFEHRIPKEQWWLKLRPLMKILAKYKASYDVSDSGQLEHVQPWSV

The target of test [4] is Cyclin-dependent kinase 1 (Homo sapiens, UniProt P06493).
Sequence of Cyclin-dependent kinase 1 (P06493 whole entry): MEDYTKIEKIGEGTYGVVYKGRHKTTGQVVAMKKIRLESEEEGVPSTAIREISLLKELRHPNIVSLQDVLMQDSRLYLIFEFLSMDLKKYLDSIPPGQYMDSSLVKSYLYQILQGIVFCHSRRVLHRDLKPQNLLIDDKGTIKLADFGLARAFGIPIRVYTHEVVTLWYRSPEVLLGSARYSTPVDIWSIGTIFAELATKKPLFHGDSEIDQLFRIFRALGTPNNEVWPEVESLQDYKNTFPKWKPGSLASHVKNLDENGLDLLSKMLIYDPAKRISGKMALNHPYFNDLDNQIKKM
In test [5] the target is Fibroblast growth factor receptor 1 (Homo sapiens, UniProt P11362).
Sequence of Fibroblast growth factor receptor 1 (P11362 whole entry): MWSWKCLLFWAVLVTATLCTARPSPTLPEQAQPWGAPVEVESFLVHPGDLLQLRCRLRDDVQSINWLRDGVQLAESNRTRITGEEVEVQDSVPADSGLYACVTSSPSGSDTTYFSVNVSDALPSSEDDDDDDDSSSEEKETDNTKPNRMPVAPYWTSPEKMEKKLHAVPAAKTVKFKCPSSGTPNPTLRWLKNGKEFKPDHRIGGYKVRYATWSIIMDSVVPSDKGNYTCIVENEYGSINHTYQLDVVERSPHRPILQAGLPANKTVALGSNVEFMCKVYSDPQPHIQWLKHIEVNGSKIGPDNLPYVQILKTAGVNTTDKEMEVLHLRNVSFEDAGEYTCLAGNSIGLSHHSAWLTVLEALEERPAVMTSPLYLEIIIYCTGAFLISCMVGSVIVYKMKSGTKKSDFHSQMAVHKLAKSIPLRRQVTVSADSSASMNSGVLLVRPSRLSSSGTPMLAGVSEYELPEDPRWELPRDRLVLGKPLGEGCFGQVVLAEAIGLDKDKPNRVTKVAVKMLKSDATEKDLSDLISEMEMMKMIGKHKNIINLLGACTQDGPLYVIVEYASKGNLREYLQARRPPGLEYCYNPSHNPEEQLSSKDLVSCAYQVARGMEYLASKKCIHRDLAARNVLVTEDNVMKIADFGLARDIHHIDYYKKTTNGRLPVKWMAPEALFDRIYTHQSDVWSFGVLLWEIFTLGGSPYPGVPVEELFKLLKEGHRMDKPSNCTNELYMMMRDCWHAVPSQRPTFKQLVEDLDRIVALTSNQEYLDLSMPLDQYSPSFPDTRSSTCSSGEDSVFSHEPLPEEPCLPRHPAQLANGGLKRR
Test [6] has as its target T2, Cytochrome c1, heme protein, mitochondrial (Homo sapiens, UniProt P08574).
T2 sequence (P08574 whole entry): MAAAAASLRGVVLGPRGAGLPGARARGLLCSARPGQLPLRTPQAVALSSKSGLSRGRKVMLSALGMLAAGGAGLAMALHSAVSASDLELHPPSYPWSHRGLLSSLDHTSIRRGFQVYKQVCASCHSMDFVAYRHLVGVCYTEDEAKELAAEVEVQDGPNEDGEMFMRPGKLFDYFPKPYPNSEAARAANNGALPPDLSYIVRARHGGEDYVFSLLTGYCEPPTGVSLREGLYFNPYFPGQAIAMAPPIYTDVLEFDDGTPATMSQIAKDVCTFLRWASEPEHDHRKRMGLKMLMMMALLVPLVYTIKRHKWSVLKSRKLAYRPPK

Test [7] concerns the target Elongation factor Tu, mitochondrial (Homo sapiens, UniProt P49411).
Test [8] has as its target T3, Serine/threonine-protein kinase D2 (Homo sapiens, UniProt Q9BZL6).
T3 sequence (Q9BZL6 whole entry): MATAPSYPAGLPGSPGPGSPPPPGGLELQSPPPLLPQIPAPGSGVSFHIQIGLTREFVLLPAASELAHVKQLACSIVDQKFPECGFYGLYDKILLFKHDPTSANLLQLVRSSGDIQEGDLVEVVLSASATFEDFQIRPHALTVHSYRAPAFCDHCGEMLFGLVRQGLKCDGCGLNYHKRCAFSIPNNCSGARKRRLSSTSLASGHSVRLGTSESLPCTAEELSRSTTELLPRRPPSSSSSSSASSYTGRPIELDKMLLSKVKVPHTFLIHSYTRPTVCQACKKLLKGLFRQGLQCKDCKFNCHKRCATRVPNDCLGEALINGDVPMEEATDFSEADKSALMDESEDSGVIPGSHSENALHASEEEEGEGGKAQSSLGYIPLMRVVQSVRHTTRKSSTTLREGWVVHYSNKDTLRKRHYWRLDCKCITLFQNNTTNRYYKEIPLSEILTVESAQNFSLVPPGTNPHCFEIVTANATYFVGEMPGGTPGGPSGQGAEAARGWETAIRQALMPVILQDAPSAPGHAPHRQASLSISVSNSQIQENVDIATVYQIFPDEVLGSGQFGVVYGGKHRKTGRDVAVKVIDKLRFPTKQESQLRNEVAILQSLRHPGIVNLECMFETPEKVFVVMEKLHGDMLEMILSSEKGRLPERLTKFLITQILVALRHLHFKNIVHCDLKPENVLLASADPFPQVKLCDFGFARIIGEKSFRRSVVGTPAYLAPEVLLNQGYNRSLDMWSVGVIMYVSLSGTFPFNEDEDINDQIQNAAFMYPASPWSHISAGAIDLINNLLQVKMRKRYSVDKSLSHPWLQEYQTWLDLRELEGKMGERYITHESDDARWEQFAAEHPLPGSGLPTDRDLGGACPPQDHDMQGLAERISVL

Test [9] addresses T4, Phosphorylase b kinase gamma catalytic chain, liver/testis isoform (Homo sapiens, UniProt P15735).
T4 sequence (P15735 whole entry): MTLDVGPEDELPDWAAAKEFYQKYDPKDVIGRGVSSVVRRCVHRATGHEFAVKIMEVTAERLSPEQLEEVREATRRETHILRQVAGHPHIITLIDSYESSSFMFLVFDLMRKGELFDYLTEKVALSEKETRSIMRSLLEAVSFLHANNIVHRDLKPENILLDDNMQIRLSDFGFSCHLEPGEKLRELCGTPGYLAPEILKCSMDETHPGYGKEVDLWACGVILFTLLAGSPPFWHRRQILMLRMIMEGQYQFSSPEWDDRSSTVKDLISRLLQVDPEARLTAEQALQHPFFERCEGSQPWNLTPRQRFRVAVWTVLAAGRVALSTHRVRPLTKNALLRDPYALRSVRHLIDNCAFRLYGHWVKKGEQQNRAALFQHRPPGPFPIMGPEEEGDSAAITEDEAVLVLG

Molecules are shown by their SMILES. Active and inactive are the calls of the source. Bounds are passed on as bounds.

By Kd is commonly meant the free concentration of one partner at which half of the binding sites on the other are occupied at equilibrium, for simple one-to-one binding.
Further: in the data inactive means no Kd found up to 30 µM.

Sequence of Calcium/calmodulin-dependent protein kinase kinase 2 (Q96RR4 whole entry): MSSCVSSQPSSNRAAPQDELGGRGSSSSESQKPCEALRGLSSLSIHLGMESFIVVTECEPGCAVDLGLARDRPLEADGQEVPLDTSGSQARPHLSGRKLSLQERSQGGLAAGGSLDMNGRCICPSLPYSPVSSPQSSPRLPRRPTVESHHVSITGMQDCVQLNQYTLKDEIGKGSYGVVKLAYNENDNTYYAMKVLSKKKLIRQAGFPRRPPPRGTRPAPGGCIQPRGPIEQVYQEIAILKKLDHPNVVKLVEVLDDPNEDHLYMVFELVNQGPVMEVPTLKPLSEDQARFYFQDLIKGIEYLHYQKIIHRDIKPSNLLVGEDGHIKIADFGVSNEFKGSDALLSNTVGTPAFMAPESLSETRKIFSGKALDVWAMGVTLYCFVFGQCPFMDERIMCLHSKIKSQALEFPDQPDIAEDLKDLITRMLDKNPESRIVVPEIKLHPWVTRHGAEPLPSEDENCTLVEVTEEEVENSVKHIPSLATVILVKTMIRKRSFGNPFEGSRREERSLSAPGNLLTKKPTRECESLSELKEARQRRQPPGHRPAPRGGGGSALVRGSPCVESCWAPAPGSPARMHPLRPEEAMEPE
Sequence of Guanine nucleotide-binding protein G(i) subunit alpha-2 (P04899 whole entry): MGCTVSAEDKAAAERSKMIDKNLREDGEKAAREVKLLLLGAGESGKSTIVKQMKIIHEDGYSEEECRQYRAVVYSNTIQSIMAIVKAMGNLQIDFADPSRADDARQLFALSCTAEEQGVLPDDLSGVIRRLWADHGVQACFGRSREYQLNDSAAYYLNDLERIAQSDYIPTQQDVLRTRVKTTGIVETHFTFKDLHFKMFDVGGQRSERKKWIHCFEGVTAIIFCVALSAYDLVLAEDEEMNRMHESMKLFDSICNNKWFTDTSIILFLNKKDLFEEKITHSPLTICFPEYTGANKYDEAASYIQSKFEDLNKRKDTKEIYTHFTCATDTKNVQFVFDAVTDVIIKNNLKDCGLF

For the molecule `CCc1nc(C(N)=O)c(Nc2ccc(N3CCC(N4CCN(C)CC4)CC3)c(OC)c2)nc1NC1CCOCC1` [GILTERITINIB], the Kd in [1] is 2.65 µM (active); in test [2], > 30 µM (inactive); in test [3], > 30 µM (inactive); in test [4] it was > 30 µM (inactive); in [5], > 30 µM (inactive); in test [6], 0.202 µM. Besides, the figures for the equilibrium dissociation constant (Kd) in [7] and in test [8] were 0.464 µM and > 30 µM (inactive), respectively.

`C=CCn1c(=O)c2cnc(Nc3ccc(N4CCN(C)CC4)cc3)nc2n1-c1cccc(C(C)(C)O)n1` [ADAVOSERTIB]: the Kd in [1], in test [2], in [3], in [4], in test [6] and in test [9] was > 30 µM (inactive) in each case. For the same molecule, the Kd in test [7] and in [8] was > 30 µM (inactive) in each case.

As for `FC(F)(F)c1ccc(CNc2ccc(Cc3c[nH]c4ncc(Cl)cc34)cn2)cn1` [PEXIDARTINIB], the Kd in test [1], in test [2], in test [4], in [5], in test [6] and in test [9] was > 30 µM (inactive) in each case. Besides, the Kd in test [7] and in test [8] was > 30 µM (inactive) throughout.

Regarding `O=S(=O)(c1cccc2cnccc12)N1CCCNCC1` [FASUDIL], the Kd in [1], in [2], in test [3], in test [6], in test [9] and in test [7] was > 30 µM (inactive) throughout. In addition, in test [8], the dissociation constant (Kd) was 6.42 µM (active).

As for `Cc1cc(-c2cc(OC(=O)c3ccccc3)ccc2Cl)cc2nnc(Nc3ccc(OCCN4CCCC4)cc3)nc12` [TG100-801], the Kd in test [1], in test [2], in test [4], in [5], in [6] and in test [9] was > 30 µM (inactive) in each case. Further, the Kd in test [7] and in [8] was > 30 µM (inactive) each time.

Take `O=C(Nc1ccc(OC(F)(F)F)cc1)c1sccc1NCc1ccnc2ccccc12` [OSI-930]: the Kd in test [1], in test [2], in test [4], in test [5], in test [6] and in test [9] was > 30 µM (inactive) in each case. For the same molecule, the Kd in [7] and in test [8] was > 30 µM (inactive) each time.

As to `CCN(CCCOc1ccc2c(Nc3cc(CC(=O)Nc4cccc(F)c4)n[nH]3)ncnc2c1)CCOP(=O)(O)O` [BARASERTIB], the Kd in [2], in [3], in [4], in test [6], in [9] and in test [7] was > 30 µM (inactive) throughout. The Kd in test [8] was > 30 µM (inactive).

For `O=S(=O)(c1cccc2c(O)nccc12)N1CCCNCC1` [HYDROXYFASUDIL], the Kd in test [1], in [2], in test [3], in test [4], in test [6] and in test [9] was > 30 µM (inactive) in each case. In addition, the figures for the Kd in test [7] and in test [8] were > 30 µM (inactive) and 2.54 µM (active), respectively.

Take `Cn1cnc2c(F)c(Nc3ccc(Br)cc3Cl)c(C(=O)NOCCO)cc21` [SELUMETINIB]: the Kd in [2], in test [3], in test [4], in test [6] and in test [7] was > 30 µM (inactive) throughout.

Turning to `CC(C)(O)CC(=O)NCCn1ccc2ncnc(Nc3ccc(Oc4cccc(C(F)(F)F)c4)c(Cl)c3)c21` [TAK-285], the Kd in test [1], in test [2], in [3], in test [4], in test [5] and in test [6] was > 30 µM (inactive) each time. Also, the Kd in test [9] and in [7] was > 30 µM (inactive) throughout.

In the case of `Cn1c(=O)n(-c2ccc(C(C)(C)C#N)cc2)c2c3cc(-c4cnc5ccccc5c4)ccc3ncc21` [DACTOLISIB], the Kd in [1], in test [2], in test [3], in test [4], in test [6] and in test [9] was > 30 µM (inactive) each time. The Kd in test [7] and in test [8] was > 30 µM (inactive) in each case.

With `C[C@]1(O)C[C@@H](c2nc(-c3ccc4ccc(-c5ccccc5)nc4c3)c3c(N)nccn32)C1` [LINSITINIB], the Kd in [1], in [2], in test [3], in test [6] and in [7] was > 30 µM (inactive) each time.

Take `CN(c1ncccc1CNc1nc(Nc2ccc3c(c2)CC(=O)N3)ncc1C(F)(F)F)S(C)(=O)=O` [PF-00562271]: the Kd in test [2] was > 30 µM (inactive); in [3], > 30 µM (inactive); in test [4], 1.51 µM (active); in test [6], > 30 µM (inactive); in [7], > 30 µM (inactive).

Turning to `C[C@@]1(C(=O)Nc2ccc(F)nc2)CCCN1c1nc(Nc2cc(C3CC3)n[nH]2)c2cccn2n1` [BMS-754807], the Kd in test [2], in test [3], in [4], in test [6] and in test [7] was > 30 µM (inactive) in each case.
